The assay concerns the target CBP (Homo sapiens (Human), UniProt Q92793). Kind of assay: HTRF biochemical assay for CBP activity (TR-FRET, bromodomain). Particulars: geometric mean, 10-point 3-fold dilution 33 μM to 1.7 nM, read-out: BROMO IC50 TRF TB CBP (μM gmean). In kind it is binding. The protocol: Example 1: HTRF Biochemical Assay for CBP Activity
The assay was performed in a final volume of 6 μL in assay buffer containing 50 mM Hepes (pH 7.5, (0.5M Hepes, pH 7.5 solution; Teknova H1575)), 0.5 mM GSH, 0.01% BGG (0.22 p M filtered, Sigma, G7516-25G), 0.005% BSA (0.22 μM filtered, EMD Millipore Corporation, 126575) and 0.01% Triton X-100 (Sigma, T9284-10L). Nanoliter quantities of 10-point, 3-fold serial dilution in DMSO were pre-dispensed into 1536 assay plates (Corning, #3724BC) for a final test concentration of 33 μM to 1.7 nM, top to lowest dose, respectively. 3 μL of 2×Protein and 3 μL of 2×Peptide Ligand were added to assay plates (pre-stamped with compound). Plates were incubated for varying times at room temperature prior to measuring the signal. TR-FRET (Time-Resolved Fluorescence Resonance Energy Transfer) was measured on the PHERAstar (BMG, equipped with HTRF optic module [337/520/490]) or on the Envision (PerkinElmer, equipped with the TRF Laser unit, TRF dual mirror D400/D505 and emission filters M520 and M495). Data were reported as percent inhibition compared with control wells based on the following equation: % inh=1−((TR-FRET ratio−AveLow)/(AveHigh−AveLow)) where TR-FRET ratio=(Fluorescence at 520 nm/Fluorescence at 490 nm)*10000), AveLow=average TR-FRET ratio of no enzyme control (n=32), and AveHigh=average TR-FRET ratio of DMSO control (n=32). IC50 values were determined by curve fitting of the standard 4 parameter logistic fitting algorithm included in the Activity Base software package: IDBS XE Designer Model205. Data is fitted using the Levenburg Marquardt algorithm. As set forth in Table 2 below, an IC50 value of greater than or equal to 0.001 μM and less than or equal to 0.01 μM is marked “++++”; a value greater than 0.01 μM and less than or equal to 0.1 μM is marked “+++”; a value greater than 0.1 μM and less than or equal to 1 μM is marked “++”; and a value greater than 1 μM and less than 1000 μM is marked “+.” Compounds that were not tested in a particular assay are marked “NT.”
(Time-resolved FRET reads energy transfer from a long-lived donor to a nearby acceptor.)
CBP, sequence (Q92793 1085-1192): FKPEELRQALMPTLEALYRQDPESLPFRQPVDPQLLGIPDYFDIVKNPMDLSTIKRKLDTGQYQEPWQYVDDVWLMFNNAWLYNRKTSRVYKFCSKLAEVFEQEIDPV
As usually defined, the IC50 is the concentration that inhibits the measured activity by half. Turning to “(1S,3S)-3-[3-[(2R)-1-(3,4-difluorophenyl)propan-2-yl]-8-(methoxycarbonyl)-3H,6H,7H,8H,9H-imidazo[4,5-h]isoquinolin-2-yl]cyclohexane-1-carboxylic acid [Compound 31]”, the concentration for half-maximal inhibition (IC50) lay within 0.001 to 0.01 µM. For `COC(=O)N1CCc2ccc3c(nc([C@H]4CC[C@@H](OC)CC4)n3C[C@@H](C(=O)O)c3ccccc3)c2C1` [Compound 64], the IC50 lay within 0.001 to 0.01 µM. As to `COC(=O)N1CCc2ccc3c(nc([C@H]4CC[C@H](C(=O)O)CC4)n3[C@@H](C)C[C@H]3CCCOC3)c2C1` [Compound 296], the half-inhibitory concentration (IC50) was 0.1 to 1 µM. Take `COC(=O)N1Cc2c(ccc3c2nc(C2CCCCC2)n3Cc2ccccc2)CC1C` (centres unmarked) [Compound 328]: the IC50 lay in the range of 0.1 to 1 µM. The figure for `COC(=O)N1CCc2ccc3c(nc(C4CCCCC4)n3CC[C@H]3CC[C@@H](C(=O)O)CC3)c2C1` [Compound 87] is 0.001 to 0.01 µM.

For the compound `COC(=O)N1CCc2ccc3c(nc([C@H]4CC[C@H](C(=O)O)CC4)n3[C@H](C)Cc3ccccc3Cl)c2C1` [Compound 297], the IC50 lay within 0.1 to 1 µM. For `COC(=O)N1CCc2ccc3c(nc([C@H]4CC[C@H](C(=O)O)CC4)n3[C@H](C)C[C@@H]3CCCCO3)c2C1` [Compound 302], the IC50 lay within 0.1 to 1 µM. The figure for `COC(=O)N1CCc2ccc3c(nc([C@@H]4CCC[C@@H](C(=O)O)C4)n3C[C@H]3CC[C@H](OC)CC3)c2C1` [Compound 262] is 0.01 to 0.1 µM; for `COC(=O)N1CCc2ccc3c(nc(-c4ccc(C(C)(C)C(=O)O)cc4)n3[C@H](C)Cn3cc(Cl)cn3)c2C1` [Compound 327] it is 0.1 to 1 µM; for `COC(=O)N1CCc2ccc3c(nc(C4CCCCC4)n3[C@@H](C)Cc3cccc(C(=O)O)c3)c2C1` [Compound 102] it is 0.001 to 0.01 µM. For `COC(=O)N1CCc2ccc3c(nc(C4CCCCC4)n3[C@H](Cc3ccccc3)C(=O)O)c2C1` [Compound 206], the IC50 fell in the range of 0.01 to 0.1 µM. As for `COC(=O)N1CCc2ccc3c(nc([C@H]4CC[C@H](C(=O)O)CC4)n3[C@@H](C)CC3CCOCC3)c2C1` [Compound 188], the IC50 is 0.01 to 0.1 µM. As for `COC(=O)N1CCc2ccc3c(nc([C@H]4CC[C@H](C(=O)O)CC4)n3C(=O)N(C)c3ccccc3)c2C1` [Compound 292], the IC50 fell in the range of 0.1 to 1 µM. Take `COC(=O)N1CCc2ccc3c(nc([C@H]4CC[C@H](C(=O)O)CC4)n3[C@@H](C)Cc3ccccc3)c2C1` [Compound 72]: the IC50 fell in the range of 0.001 to 0.01 µM.

Consider `COC(=O)N1CCc2ccc3c(nc(C4CCN(S(N)(=O)=O)CC4)n3[C@@H](C)Cc3ccccc3)c2C1` [Compound 107], for which the IC50 was 0.001 to 0.01 µM. With `COC(=O)N1CCc2ccc3c(nc([C@H]4CC[C@](C)(C(=O)O)CC4)n3[C@@H](C)Cn3cc(Cl)cn3)c2C1` [Compound 231], the 50% inhibitory concentration (IC50) fell in the range of 0.01 to 0.1 µM. With `COC(=O)N1CCc2ccc3c(nc(C4CCCCC4)n3CC[C@H]3CCC[C@@H](C(=O)O)C3)c2C1` [Compound 177], the concentration for half-maximal inhibition (IC50) was 0.01 to 0.1 µM. In the case of `COC(=O)N1Cc2c(ccc3c2nc([C@H]2CC[C@H](C(=O)O)CC2)n3[C@H](C)Cc2ccc(F)c(F)c2)C[C@@H]1C` [Compound 129] it was 0.001 to 0.01 µM; in that of `COC(=O)N1CCc2ccc3c(nc([C@H]4CC[C@@H](OC)CC4)n3C[C@H](C(=O)O)c3ccccc3)c2C1` [Compound 250], 0.01 to 0.1 µM. On to `COC(=O)N1CCc2ccc3c(nc(-c4ccncc4)n3[C@H](C)Cc3ccccc3)c2C1` [Compound 326], for which the IC50 lay in the range of 0.1 to 1 µM. In the case of `COC(=O)N1CCc2ccc3c(nc([C@H]4CCC[C@H](C(=O)O)C4)n3Cc3ccc(OC(F)F)cc3)c2C1` [Compound 209] it was 0.01 to 0.1 µM.

On to `COC(=O)N1CCc2ccc3c(nc(C4CCCCC4)n3C[C@@H]3CCCC[C@H]3C(=O)O)c2C1` [Compound 227], for which the concentration for half-maximal inhibition (IC50) fell in the range of 0.01 to 0.1 µM. In the case of `COC(=O)N1CCc2ccc3c(nc(C4CCN(S(=O)(=O)NC(C)=O)CC4)n3[C@@H](C)Cc3ccccc3)c2C1` [Compound 178], the IC50 is 0.01 to 0.1 µM. In the case of `COC(=O)N1CCc2ccc3c(nc(-c4ccccn4)n3[C@@H](C)Cc3ccccc3)c2C1` [Compound 159], the half-maximal inhibitory concentration (IC50) is 0.001 to 0.01 µM. In the case of `COC(=O)N1CCc2ccc3c(nc([C@H]4CC[C@H](S(=O)(=O)NC(C)=O)CC4)n3[C@H](C)Cc3ccccc3)c2C1` [Compound 316], the IC50 was in the range of 0.1 to 1 µM. Take `COC(=O)N1CCc2ccc3c(nc(C4CCCCC4)n3[C@H](C)Cc3cccc(C(=O)O)c3)c2C1` [Compound 294]: the IC50 was 0.1 to 1 µM. As for `COC(=O)N1CCc2cc(CC(=O)O)c3c(nc(C4CCCCC4)n3CCc3ccccc3)c2C1` [Compound 158], the half-inhibitory concentration (IC50) was 0.001 to 0.01 µM. On to `COC(=O)N1CCc2ccc3c(nc(-c4ccc(C(=O)O)cc4)n3[C@@H](C)Cn3cc(Cl)cn3)c2C1` [Compound 132], for which the 50% inhibitory concentration (IC50) lay in the range of 0.001 to 0.01 µM. Regarding `COC(=O)N1CCc2c(C(=O)O)cc3c(nc(C4CCCCC4)n3[C@H](C)Cc3ccccc3)c2C1` [Compound 300], the 50% inhibitory concentration (IC50) fell in the range of 0.1 to 1 µM.

`COC(=O)N1CCc2ccc3c(nc([C@@H]4CCC[C@@H](C(=O)O)C4)n3C[C@H]3CC[C@@H](OC)CC3)c2C1` [Compound 259]: the IC50 lay in the range of 0.01 to 0.1 µM. Consider `COC(=O)N1CCc2ccc3c(nc(C4CCCCC4)n3[C@@H](C)C[C@H]3CC[C@@H](C(=O)O)CC3)c2C1` [Compound 274], for which the IC50 was 0.01 to 0.1 µM. For `COC(=O)N1CCc2ccc3c(nc([C@H]4CC[C@H](C(=O)O)CC4)n3[C@H](C)CC3CCCCC3)c2C1` [Compound 114], the IC50 was 0.001 to 0.01 µM. In the case of `COC(=O)N1CCc2ccc3c(nc([C@H]4CCC[C@H](C(=O)O)C4)n3Cc3cncc(Cl)n3)c2C1` [Compound 254] it was 0.01 to 0.1 µM. For `COC(=O)N1CCc2ccc3c(nc(C4CCCCC4)n3[C@H](C)C[C@@H]3CCCC[C@@H]3C(=O)O)c2C1` [Compound 91], the IC50 was 0.001 to 0.01 µM. For the compound `COC(=O)N1CCc2ccc3c(nc([C@H]4CC[C@H](C(=O)O)CC4)n3[C@H](C)C[C@H]3CC[C@@H](OC)CC3)c2C1` [Compound 68], the IC50 lay within 0.001 to 0.01 µM. The figure for `COC(=O)N1CCc2c(C(=O)O)cc3c(nc(N4CCCCC4)n3C[C@@H](C)c3ccccc3)c2C1` [Compound 103] is 0.001 to 0.01 µM; for `COC(=O)N1CCc2ccc3c(nc(N4CCN(C(=O)C5COC5)CC4)n3[C@H](C)Cc3ccccc3)c2C1` [Compound 79] it is 0.001 to 0.01 µM; for `COC(=O)N1CCc2ccc3c(nc([C@H]4CC[C@H](C(=O)O)CC4)n3[C@@H](C)C[C@]3(C)CC[C@@H](OC)CC3)c2C1` [Compound 249] it is 0.01 to 0.1 µM. On to `COC(=O)N1CCc2ccc3c(nc([C@H]4CC[C@@H](C(=O)O)CC4)n3CCc3ccccc3)c2C1` [Compound 336], for which the IC50 was in the range of 0.1 to 1 µM. With `COC(=O)N1CCc2ccc3c(nc(N4CCN(C(C)=O)CC4)n3[C@@H](C)Cc3cccnc3)c2C1` [Compound 234], the 50% inhibitory concentration (IC50) fell in the range of 0.01 to 0.1 µM. The figure for `COC(=O)N1CCc2ccc3c(nc(C4CCN(S(C)(=O)=O)CC4)n3[C@H](C)Cn3cc(Cl)cn3)c2C1` [Compound 110] is 0.001 to 0.01 µM; for `COC(=O)N1CCc2ccc3c(nc(C4CCN(C(C)=O)CC4)n3[C@@H](C)Cc3cccnc3)c2C1` [Compound 207] it is 0.01 to 0.1 µM; for `COC(=O)N1CCc2ccc3c(nc([C@@H]4CCC[C@@H](C(=O)O)C4)n3[C@H](C)Cc3ccccc3C)c2C1` (single isomer, unassigned) [Compound 284] it is 0.01 to 0.1 µM. For `COC(=O)N1CCc2ccc3c(nc(C4CCCCC4)n3C[C@@H](C(=O)O)c3cc(F)ccc3OC)c2C1` (single isomer, unassigned) [Compound 11], the IC50 lay in the range of 0.001 to 0.01 µM. In the case of `COC(=O)N1CCc2ccc3c(nc(C4CCCCC4)n3C[C@@](C)(C(=O)O)c3ccccc3)c2C1` [Compound 150] it was 0.001 to 0.01 µM. Regarding `COC(=O)N1CCc2ccc3c(nc([C@H]4CCC[C@H](C(=O)O)C4)n3[C@H](C)Cc3ccccc3C)c2C1` (single isomer, unassigned) [Compound 163], the IC50 was in the range of 0.001 to 0.01 µM. As for `COC(=O)N1CCc2c([C@@H]3CCOC3)cc3c(nc([C@H]4CC[C@H](C(=O)O)CC4)n3[C@H](C)Cc3ccccc3)c2C1` [Compound 44], the IC50 was in the range of 0.001 to 0.01 µM. For the compound `COC(=O)N1CCc2ccc3c(nc(C4CCCCC4)n3C[C@H](CC(=O)O)c3ccc(F)c(F)c3)c2C1` (single isomer, unassigned) [Compound 189], the half-maximal inhibitory concentration (IC50) lay within 0.01 to 0.1 µM. For `COC(=O)N1CCc2ccc3c(nc([C@H]4CC[C@H](C(=O)O)CC4)n3[C@@H](C)C[C@H]3CCCCO3)c2C1` [Compound 147], the IC50 was 0.001 to 0.01 µM.

Take `COC(=O)N1CCc2ccc3c(nc([C@H]4CC[C@H](C(=O)O)CC4)n3[C@@H](C)C[C@H]3CC[C@@H](OC)CC3)c2C1` [Compound 220]: the 50% inhibitory concentration (IC50) fell in the range of 0.01 to 0.1 µM.
